# Values of other authors as cited in patent US5690961A, “Acidic polysaccharides crosslinked with polycarboxylic acids and their uses” (Hercules Incorporated, priority 1994, dated 1997).
# Conditions: in vivo
substance,measurement,value
hyaluronic acid,half-life of hyaluronic acid injected in a joint,about 13 hours
